Reference: PMC12655551, “Design, Synthesis, and Evaluation of Pyrrole-Based Selective MAO-B Inhibitors with Additional AChE Inhibitory and Neuroprotective Properties Identified via Virtual Screening” (Pharmaceuticals, 2025)
Like-named read-outs stand apart in the source and are kept apart here.

What was measured:
[1] = test system: isolated rat brain mitochondria; assay: t-BuOOH-induced oxidative stress in isolated rat brain mitochondria; type: cell-based; conditions: compound 50 µM with t-BuOOH 75 μM
Description: (§1) Two types of buffers were used for the isolation of the rat brain synaptosomes and mitochondria. Buffer A was 5 mM HEPES and 0.32 M Sucrose; Buffer B was 290 mM NaCl, 0.95 mM MgCl2 × 2H2O, 10 mM KCl, 2.4 mM CaCl2 × 2H2O, 2.1 mM NaH2PO4, 44 mM HEPES, 13 mM D-Glucose. For the gradient centrifugation, Percoll reagent was used. A stock solution of 90% Percoll was used to prepare 16%, 10% and 7.5% solutions. All the solutions were used as described below. Immediately after harvesting, synaptosomes, microsomes, and mitochondria were incubated with the exam compounds for 1 h. For assessing the possible neurotoxicity of the most MAOB active compounds, the sub-cellular fractions were incubated with 100 µM of them, and for evaluating their possible neuroprotective and antioxidant activities in different models of neurotoxicity, the sub-cellular fractions were incubated with 50µM of them. The protein measurement of all the sub-cellular fractions was made by the method of Lowry et al., 1951 [57].
The mitochondria were prepared by multiple differential fractionation using a Percoll gradient.
The mitochondria were incubated with 75 μM t-BuOOH [57].
After incubation of the mitochondria, 0.3 mL 0.2% TBA and 0.25 mL sulfuric acid (0.05 M) were added to stop the reaction. The tubes were maintained at 100 °C for 30 min. In the next stage, centrifugation of the tubes was carried out at 3500× g for 10 min. Assessment of the total quantity of MDA formed in each sample was measured in the supernatant at 532 nm.
After incubation of mitochondria, 0.04% DTNB was mixed with the mitochondrial suspensions in 0.1 M phosphate buffer (pH 7.4). The absorbance of the yellow product was measured at 412 nm.

[2] = target: T1, BChE (Equus caballus, UniProt P81908); assay: biochemical; conditions: for inhibition at 200 µM: read-out: Inhibition Activity 200 µM BChE
T1 construct: purchased Sigma-Aldrich, Hamburg, Germany; host or cells: equine serum
Description: (§2) AChE and BChE inhibitory activity of the newly synthesized pyrrole-based compounds was measured using the microplate assay described by Ellman et al. with the modifications added by López et al.. The compounds were tested at concentrations between 0.01 and 200 μM. First, they were dissolved in phosphate buffer (PBS) (8 mM K2HPO4, 2.3 mM NaH2PO4, 0.15 M NaCl, pH 7.5), assisted by the addition of no more than 5% MeOH. Then, they were serially diluted with PBS to provide the concentration range needed. Acetylcholinesterase from Electrophorus electricus and butyrylcholinesterase from equine serum (Sigma-Aldrich, Hamburg, Germany) were used with a substrate solution of 5,5′-dithiobis(2-nitrobenzoic acid) (DTNB) with acetylthiocholine iodide (ATCI) or butyrylthiocholine iodide (BTCI), respectively (0.04 M Na2HPO4, 0.2 mM DTNB, 0.24 mM ATCI or BTCI, pH 7.5). A total of 50 μL of AChE or BChE (0.25 U/mL, in PBS) and 50 μL of the tested compound solution were added to the wells. Incubation of the plates was performed at room temperature for 30 min. Then, 100 μL of substrate solution was added to start the enzymatic reaction. […] Enzyme activity was calculated as an inhibition percentage compared to an assay including buffer instead of an inhibitor.

[3] = test system: isolated rat brain synaptosomes; assay: Neurotoxicity of compounds alone on isolated rat brain synaptosomes (MTT viability, GSH); type: cell-based; conditions: compound alone, 100 μM, vs non-treated synaptosomes
Description: as §1
The synaptosomes were prepared from rat brains by multiple sub-cellular fractionation using a Percoll gradient.
After the incubation, the synaptosomes were centrifuged three times at 15,000× g for 1 min. MTT-test was performed to determine synaptosomal vitality by the method described by Mungarro-Menchaca et al..
The level of GSH was determined by measuring the non-protein SH-groups after precipitation of the proteins with trichloroacetic acid (TCA). The presence of thiols in the supernatant was determined using Elmman’s reagent. The resulting yellow color was measured spectrophotometrically (λ = 412 nm).

[4] = test system: isolated rat brain microsomes; assay: Pro-oxidant effect of compounds alone on isolated rat brain microsomes (MDA); type: cell-based; conditions: compound alone, 100 μM, vs non-treated microsomes
Description: as §1
(§3) The brain was homogenized in 9 vol. of 0.1 M Tris buffer containing 0.1 mM Dithiothreitol, 0.1 mM Phenylmethylsulfonyl fluoride, 0.2 mM EDTA, 1.15% KCl, and 20% (v/v) glycerol at pH 7.4. The homogenate was centrifuged twice at 17,000× g for 30 min. […]
(§4) The quantity of the lipid peroxidation product MDA was assessed using the method described by Deby and Goutier.

[5] = test system: isolated rat brain microsomes; assay: FeSO4/ascorbic acid-induced lipid peroxidation in isolated rat brain microsomes; type: cell-based; conditions: compound 50 μM with Fe/AA
Description: as §1, §3, §4

[6] = target: T2, AChE (Electrophorus electricus, UniProt O42275); assay: biochemical; type: biochemical; conditions: for inhibition at 200 µM: 200 µM compound; for IC50: means ± SD of three experiments
T2 construct: purchased Sigma-Aldrich, Hamburg, Germany
Description: as §2

T1 sequence (P81908 whole entry): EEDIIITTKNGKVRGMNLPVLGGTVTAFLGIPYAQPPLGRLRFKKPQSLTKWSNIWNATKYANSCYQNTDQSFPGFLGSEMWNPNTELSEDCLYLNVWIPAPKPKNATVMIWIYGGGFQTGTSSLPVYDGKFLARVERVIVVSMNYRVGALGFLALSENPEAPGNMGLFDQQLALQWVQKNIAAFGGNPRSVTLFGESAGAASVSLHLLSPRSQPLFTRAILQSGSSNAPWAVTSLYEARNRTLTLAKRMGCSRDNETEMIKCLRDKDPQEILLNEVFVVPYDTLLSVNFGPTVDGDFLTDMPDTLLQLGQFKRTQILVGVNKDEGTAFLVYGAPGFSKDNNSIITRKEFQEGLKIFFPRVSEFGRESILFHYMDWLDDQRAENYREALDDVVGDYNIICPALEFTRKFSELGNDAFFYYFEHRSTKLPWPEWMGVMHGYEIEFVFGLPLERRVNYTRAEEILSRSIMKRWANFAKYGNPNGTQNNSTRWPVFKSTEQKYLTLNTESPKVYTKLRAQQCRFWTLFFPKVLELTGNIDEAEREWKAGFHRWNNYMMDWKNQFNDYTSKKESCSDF
T2 sequence (O42275 24-633): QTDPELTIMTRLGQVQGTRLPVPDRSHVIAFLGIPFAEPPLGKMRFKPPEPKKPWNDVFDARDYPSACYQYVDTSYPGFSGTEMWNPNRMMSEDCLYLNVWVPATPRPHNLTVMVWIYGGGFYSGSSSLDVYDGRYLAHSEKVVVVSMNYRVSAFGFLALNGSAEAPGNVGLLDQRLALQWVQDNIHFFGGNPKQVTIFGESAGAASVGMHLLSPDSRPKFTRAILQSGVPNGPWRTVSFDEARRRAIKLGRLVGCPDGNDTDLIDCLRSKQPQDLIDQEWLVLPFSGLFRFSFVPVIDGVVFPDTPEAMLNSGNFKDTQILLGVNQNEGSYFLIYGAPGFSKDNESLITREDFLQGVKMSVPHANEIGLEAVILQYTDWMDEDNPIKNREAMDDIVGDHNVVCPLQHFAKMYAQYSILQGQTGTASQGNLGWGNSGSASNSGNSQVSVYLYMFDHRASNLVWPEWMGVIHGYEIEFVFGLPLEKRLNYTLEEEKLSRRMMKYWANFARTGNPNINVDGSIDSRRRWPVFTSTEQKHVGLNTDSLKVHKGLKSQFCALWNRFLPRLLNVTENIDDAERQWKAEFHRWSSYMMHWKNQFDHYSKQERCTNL

Structure (SMILES)	decrease of MDA production compared to the toxic agent [1]	preservation of GSH level compared to toxic t-BuOOH [1]	IC50 ([2]; BChE IC50, means ± SD of three experiments)	inhibition at 200 µM [2]	decrease of GSH level compared to the control [3]	decrease of synaptosomal viability compared to the control [3]	increase of MDA production compared to the control [4]	decrease of MDA production compared to the toxic agent [5]	inhibition at 200 µM [6]	IC50 [6]	fold lower AChE inhibition potency compared to EM-DC-2 ([6]; ratio of AChE potencies)	IC50 ([2]; means ± SD of three experiments, read-out: BChE IC50)
Cc1ccc(C)n1C(Cc1cnc[nH]1)C(=O)O (stereo not drawn) [EM-DC-19, 2-(2,5-dimethyl-1H-pyrrol-1-yl)-3-(2H-imidazol-4-yl)propanoic acid]	52%	30%	> 200 µM	18.03 ± 0.17%	30%	25%	20%	60%	73.98 ± 0.59%	76.2 ± 6.12 µM	approximately 100 fold	
Cc1ccc(C)n1-c1ccc(CC(=O)O)cc1 [EM-DC-27, [4-(2,5-dimethyl-1H-pyrrol-1-yl)phenyl]acetic acid]	48%	30%		0%	30%	25%	40%	56%	26.5 ± 2.36%	> 200 µM		> 200 µM
